Assay results from patent US7923228B2, “Methods and compositions for growth of hydrocarbons in Botryococcus sp” (priority 2005, dated 2011).

System: Botryococcus sp. colonies
Experiment: Flotation (buoyancy) of sunken colonies as visual readout of hydrocarbon content
Format: cell-based
Description: Previous investigations (Ohmori, et al. 1984; and Wolf, et al, 1985) verified that colonies containing greater than 20% of dry weight as botryococcenoid hydrocarbons were buoyant and that colonies containing less than 5% hydrocarbons remained sunken at the bottom of the culture vessel, providing a visual method for selecting cells with commercial-grade hydrocarbons. […] Colonies in hydrocarbon-enhancement were placed in the dark without supplemental carbon dioxide gas to eliminate artifacts of flotation from bubbles. Environmental conditions were 150 μE/m^2/sec PAR to 1700 μE/m^2/sec PAR at 25-37° Centigrade. Nutrient chemicals were reagent grade in all laboratory-scale experiments. In field-scale tests, fertilizer grade chemical nutrients were provided. In order to minimize or eliminate ammonia, nitrates were optionally kiln dried prior to admixture. Supplementation with 0.1% to 100% carbon dioxide gas or carbonate (e.g., 10 mg/ml sodium bicarbonate or potassium bicarbonate) increased hydrocarbon synthesis substantially, especially, when under the highest light intensities with soluble elements of the present invention. […]

phosphates
total phosphate concentration that stimulated the rise of colonies to the surface (subtractive matrix analysis, most rapid in presence of soluble Mg, Mn, Fe, Zn+2): greater than 80 mM | state of colonies after long exposure (two weeks or more in 300 mM phosphate): remained floating, but cleared to amber
